Drawing on ChEMBL document CHEMBL1134939, “A survey of cyclic replacements for the central diamide moiety of inhibitors of inosine monophosphate dehydrogenase” (Bioorg Med Chem Lett, 2002), this text covers IC50 and inhibition for eleven molecules.

One test concerns the target T1, Inosine-5'-monophosphate dehydrogenase 2 (Homo sapiens, UniProt P12268). The test can be described thus: Inhibition of Inosine Monophosphate Dehydrogenase II (IMPDH II).
As usually defined, the IC50 is the concentration at which inhibition is half-maximal. `COc1cc(NC2=NCC(c3ccccc3)O2)ccc1-c1cnco1` (stereo unspecified) displayed an IC50 of 110 nM.

On to `COc1cc(-c2ccccc2)nc(Nc2ccc(-c3cnco3)c(OC)c2)n1`, for which 110 nM corresponded to half-maximal inhibition (IC50).

With `COc1cc(Nc2nnc(-c3ccccc3)o2)ccc1-c1cnco1`, inhibition was half-maximal at 44 nM (IC50).

Turning to `COc1cc(Nc2cnc(-c3ccccc3)s2)ccc1-c1cnco1`, half-maximal inhibition (IC50) required 760 nM.

On to `COc1cc(Nc2nnc(-c3ccccc3)[nH]2)ccc1-c1cnco1`, for which the IC50 turned out to be 190 nM.

For `COc1cc(Nc2cc(-c3ccccc3)on2)ccc1-c1cnco1`, the IC50 is 120 nM.

The molecule `COc1cc(Nc2noc(-c3ccccc3)n2)ccc1-c1cnco1` registered an IC50 of 59 nM.

On to `COc1cc(Nc2nnc(-c3ccccc3)s2)ccc1-c1cnco1`, for which the IC50 was determined as 330 nM.

Take `COc1cc(Nc2nc(-c3ccccc3)cs2)ccc1-c1cnco1`: inhibition was half-maximal at 300 nM (IC50).

The target of a further test is T1, Inosine-5'-monophosphate dehydrogenase 2. Nature of the test: Inhibitory concentration required against Inosine Monophosphate Dehydrogenase II (IMPDH II) was determined in vitro at a concentration 100 uM.
The term inhibition denotes how much of the control response was suppressed. A high value points to a strong effect. Regarding `COc1cc(Nc2nc(-c3ccccc3)c[nH]2)ccc1-c1cnco1`, the inhibition is 7%.

For a further test the target is unchanged. Nature of the test: Inhibitory concentration required against Inosine Monophosphate Dehydrogenase II (IMPDH II) was determined in vitro at a concentration 500 uM.
`COc1cc(Nc2cccc(-c3ccccc3)c2)ccc1-c1cnco1` had an inhibition of 30%.
